# Source: patent US12606552B2, “Bifunctional compound, preparation method therefor, and use thereof” (SUZHOU KINTOR PHARMACEUTICALS, INC., priority 2020, dated 2026)
# Tests used:
# [1] = Pharmacokinetic studies of compounds in mice; type: in vivo; details: male mice, intragastric administration 10 mg/kg, plasma
# Procedure: Activity Assay Example 3: Pharmacokinetic Studies of Compounds in Mice
# In this test, 3 male mice were selected and divided into 1 group, 3 mice/group. All animals were fasted overnight before administration.
# The intragastric administration dose was 10 mg/kg, and the administration volume was 10 mL/kg.
# 2.2 Preparation of Drug Solution
# According to the animal body weight combined with the administration dose, the amount of the required drug solution was calculated. An appropriate amount of the test substance was weighed, added with 5% of the final volume of ethanol for dissolution, then added with 5% of the final volume of SolutolHS15, and finally added with PBS to the final volume, and mixed by vortex and fully dissolved to obtain a solution for intragastric administration (1 mg/mL). All solutions were prepared for immediate use.
# 2.3 Method of Administration
# Before administration, the drug solution was placed on a magnetic stirrer in the animal laboratory and stirred for at least 10 min. During the administration process, vortex was continued to ensure uniformity of the drug solution. The theoretical volume of gavage administration was 10 mL/kg, which was administered with a syringe equipped with a gavage needle.
# Before administration, the animals were weighed and the body weight of the animals involved in the experiment was recorded, and the administration volume of each animal was calculated according to the body weight. After administration, animals were promptly transferred back to the experimental cages to collect samples.
# 2.4 Observation of Animal Status
# After administration, whether animals had abnormal reactions was observed immediately. If there were no abnormal reactions, animals were observed twice a day during the experiment. If abnormal reactions were found, they should be recorded in time, and the number of observations should be increased until the animals returned to normal or to the end of the experiment.
# 2.5 Sample Collection and Preservation
# All experimental animals were fasted overnight before administration, and blood was collected at corresponding time points into blood collection tubes containing heparin sodium anticoagulant. After the whole blood was collected, the blood collection tube was gently shaken and placed on ice immediately, and then centrifuged (4° C., 4000 rpm, 10 min) to collect supernatant plasma samples, which were stored in a refrigerator at −80° C. before analysis.
# 2.6 Plasma Sample Processing and Analysis
# The collected plasma samples were handed over to the Pharmacokinetic department for sample extraction, and the test substances in the plasma were extracted by protein precipitation method using organic reagents containing internal standards (acetonitrile:plasma=4:1, v/v). The extracted processed samples were submitted for quantitative concentration analysis by LC-MS/MS. According to the plasma concentration of each animal obtained by the analysis, software Kinetica (version 5.0) was used to calculate the main pharmacokinetic parameter eAUC30-120 according to the non-compartment model to evaluate the exposure amount; the test results are shown in Table 2: […]
# AR = molecular target: T1, AR (Homo sapiens, UniProt P10275, T878A); test: Effects of compounds on AR expression in LNCaP cells (ELISA, DC50); type: cell-based; parameters: Measurement of the Effects of Drugs on the Expression of AR in Cells by ELISA Method; endogenous in cells; host or cells: LNCaP; details: 24 hours of drug treatment, AR by ELISA
# T1 sequence (P10275 1-920 T878A): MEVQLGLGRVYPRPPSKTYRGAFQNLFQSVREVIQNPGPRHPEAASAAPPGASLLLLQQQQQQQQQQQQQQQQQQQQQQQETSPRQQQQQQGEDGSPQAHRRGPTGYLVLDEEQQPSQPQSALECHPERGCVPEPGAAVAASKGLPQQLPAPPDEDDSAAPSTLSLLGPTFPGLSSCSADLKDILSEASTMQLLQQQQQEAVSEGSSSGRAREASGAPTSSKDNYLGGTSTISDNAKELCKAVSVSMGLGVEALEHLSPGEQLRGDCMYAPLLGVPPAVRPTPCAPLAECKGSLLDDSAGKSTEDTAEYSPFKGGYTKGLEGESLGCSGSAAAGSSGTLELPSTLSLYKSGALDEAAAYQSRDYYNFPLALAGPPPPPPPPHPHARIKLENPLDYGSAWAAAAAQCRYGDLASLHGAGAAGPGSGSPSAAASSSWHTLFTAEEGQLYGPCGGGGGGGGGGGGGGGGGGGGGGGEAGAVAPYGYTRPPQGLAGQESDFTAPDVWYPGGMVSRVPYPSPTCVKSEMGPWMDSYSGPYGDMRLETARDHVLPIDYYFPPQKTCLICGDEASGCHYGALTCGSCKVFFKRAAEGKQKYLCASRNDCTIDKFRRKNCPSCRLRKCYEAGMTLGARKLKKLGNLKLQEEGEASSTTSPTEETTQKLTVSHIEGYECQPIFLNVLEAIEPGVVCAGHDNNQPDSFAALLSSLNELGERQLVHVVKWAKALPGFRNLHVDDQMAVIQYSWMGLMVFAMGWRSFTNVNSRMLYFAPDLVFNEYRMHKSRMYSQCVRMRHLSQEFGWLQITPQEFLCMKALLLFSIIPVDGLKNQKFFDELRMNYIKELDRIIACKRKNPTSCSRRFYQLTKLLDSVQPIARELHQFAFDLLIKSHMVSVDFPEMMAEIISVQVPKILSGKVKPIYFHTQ
# In short: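 LNCaP cells at about 15,000/well were treated for 24 h with compound at 0.0001–2 μmol/L final. AR in cell lysates was measured by ELISA (OD450). Inhibition was relative to DMSO control after blank subtraction, and DC50 was calculated from it.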
SMILES,eAUC0.5-2 h [1] [ng·h/mL],DC50 (AR) [nM]
Cc1ncsc1-c1ccc([C@H](C)NC(=O)[C@@H]2C[C@@H](O)CN2C(=O)[C@@H](NC(=O)COCCCCCOc2ccc(-c3ncc(N4C(=S)N(c5ccc(C#N)c(C(F)(F)F)c5F)C(=O)C4(C)C)cc3F)cc2F)C(C)(C)C)cc1 [Compound A112],383 ± 165,153
Cc1ncsc1-c1ccc([C@H](C)NC(=O)[C@@H]2C[C@@H](O)CN2C(=O)[C@@H](NC(=O)COCCCCOc2c(F)cc(-c3ncc(N4C(=S)N(c5ccc(C#N)c(C(F)(F)F)c5F)C(=O)C4(C)C)cc3C(F)(F)F)cc2F)C(C)(C)C)cc1 [Compound A115],1136 ± 164,214
Cc1ncsc1-c1ccc([C@H](C)NC(=O)[C@@H]2C[C@@H](O)CN2C(=O)[C@@H](NC(=O)COCCOc2ccc(-c3ncc(N4C(=S)N(c5ccc(C#N)c(C(F)(F)F)c5F)C(=O)C4(C)C)cc3F)cc2F)C(C)(C)C)cc1 [Compound A123],287 ± 146,61.3
Cc1ncsc1-c1ccc([C@H](C)NC(=O)[C@@H]2C[C@@H](O)CN2C(=O)[C@@H](NC(=O)COCCCCOc2c(F)cc(-c3ncc(N4C(=S)N(c5ccc(C#N)c(C(F)(F)F)c5F)C(=O)C4(C)C)cc3F)cc2F)C(C)(C)C)cc1 [Compound A124],2776 ± 292,188
Cc1ncsc1-c1ccc([C@H](C)NC(=O)[C@@H]2C[C@@H](O)CN2C(=O)[C@@H](NC(=O)COCCCCOc2ccc(-c3ccc(N4C(=S)N(c5ccc(C#N)c(C(F)(F)F)c5F)C(=O)C4(C)C)cn3)cn2)C(C)(C)C)cc1 [Compound A126],1110 ± 158,55
Cc1ncsc1-c1ccc([C@H](CC(=O)N2CCC(C#Cc3ccc(N4C(=S)N(c5ccc(C#N)c(C(F)(F)F)c5F)C(=O)C4(C)C)cc3)CC2)NC(=O)[C@@H]2C[C@@H](O)CN2C(=O)[C@@H](NC(=O)C2(F)CC2)C(C)(C)C)cc1 [Compound A133],2253 ± 851,33.3
Cc1ncsc1-c1ccc(CNC(=O)[C@@H]2C[C@@H](O)CN2C(=O)[C@@H](NC(=O)c2ccc(CNC(=O)CCCc3ccc(N4C(=S)N(c5ccc(C#N)c(C(F)(F)F)c5F)C(=O)C4(C)C)cn3)cc2)C(C)(C)C)cc1 [Compound A134],29 ± 22,1130
Cc1ncsc1-c1ccc([C@H](CC(=O)N2CCC(Oc3ccc(-c4ncc(N5C(=S)N(c6ccc(C#N)c(C(F)(F)F)c6F)C(=O)C5(C)C)cc4F)cc3F)CC2)NC(=O)[C@@H]2C[C@@H](O)CN2C(=O)[C@@H](NC(=O)C2(F)CC2)C(C)(C)C)cc1 [Compound A136],697 ± 127,68
CNC(=O)[C@@H]1C[C@@H](O)CN1C(=O)[C@@H](NC(=O)COCCCCOc1ccc(-c2ncc(N3C(=S)N(c4ccc(C#N)c(C(F)(F)F)c4F)C(=O)C3(C)C)cc2F)cc1F)C(C)(C)C [Compound A137],92 ± 34,145
Cc1ncsc1-c1ccc2[nH]c([C@@H]3C[C@@H](O)CN3C(=O)[C@@H](NC(=O)COCCCCOc3ccc(-c4ncc(N5C(=S)N(c6ccc(C#N)c(C(F)(F)F)c6F)C(=O)C5(C)C)cc4F)cc3F)C(C)(C)C)nc2c1 [Compound A138],471 ± 288,1500
Cc1ncsc1-c1ccc([C@H](CC(=O)NCCN2CCC(C#Cc3ccc(N4C(=S)N(c5ccc(C#N)c(C(F)(F)F)c5F)C(=O)C4(C)C)cc3)CC2)NC(=O)[C@@H]2C[C@@H](O)CN2C(=O)[C@@H](NC(=O)C2(F)CC2)C(C)(C)C)cc1 [Compound A139],53 ± 30,225
